The data set in a line: HILIC, Waters ACQUITY UPLC BEH Amide, 100 × 2.1 mm, 1.7 µm; A: water + 0.125% formic acid + 10 mM ammonium formate; B: 5% water + 95% acetonitrile + 0.125% formic acid + 10 mM ammonium formate; gradient (min/%B) 0/100 2/100 7.7/70 9.5/40 10.25/30 12.75/100 17/100. The settings on record: stereoisomer not certain.

Our source for the LC retention time values is the RepoRT retention time repository.

Regarding `CCNC(=O)CCC(N)C(=O)O` (centres undefined) [Theanine], the LC retention time stood at 7.66 min. Regarding `Cn1c(=O)c2[nH]cnc2n(C)c1=O` [Theophylline], the LC retention time stood at 1.54 min.

Turning to `O=C(O)C1CSCN1` (centres undefined) [Thiazolidine-4-carboxylic acid], the LC retention time was 6.92 min.

On to `N=c1ccc2nc3ccc(N)cc3sc-2c1` [Thionin], for which the LC retention time is 5.23 min. The same measure for `CC(NC(=O)C(N)C(C)O)C(=O)O` (centres undefined) [Thr-Ala]: 8.56 min; for `OCC(O)C(O)CO` (centres undefined) [Threitol]: 1.56 min. The same measure for `Cc1cn(C2CC(O)C(CO)O2)c(=O)[nH]c1=O` (centres undefined) [Thymidine]: 2.57 min; for `Cc1ccc(C(C)C)c(O)c1` [Thymol]: 1.53 min; for `Cc1ccsc1C(=CCCN1CCCC(C(=O)O)C1)c1sccc1C` (centres undefined) [Tiagabine]: 3.94 min.

As for `C#CC1(O)CCC2C3C(C)CC4=C(CCC(=O)C4)C3CCC21C` (centres undefined) [Tibolone], the LC retention time was determined as 1 min. For the compound `Clc1ccccc1CN1CCc2sccc2C1` [Ticlopidine], the LC retention time worked out at 1.12 min. Consider `CCS(=O)(=O)CCn1c([N+](=O)[O-])cnc1C` [Tinidazole], for which the LC retention time amounted to 1.04 min. As for `Cc1cccc(C)c1NC(=O)C(C)N` (centres undefined) [Tocainide], the figure is 4.97 min. Regarding `Cc1ccc(O)c(C(CCN(C(C)C)C(C)C)c2ccccc2)c1` (centres undefined) [Tolterodine], the LC retention time worked out at 2.13 min. As for `CCCc1c(OCCCCc2nn[nH]n2)ccc(C(C)=O)c1O` [Tomelukast], the figure is 1.04 min; as for `CC1(C)OC2COC3(COS(N)(=O)=O)OC(C)(C)OC3C2O1` (centres undefined) [Topiramate], 1.1 min; as for `CCC1(O)C(=O)OCc2c1cc1n(c2=O)Cc2cc3c(CN(C)C)c(O)ccc3nc2-1` (centres undefined) [Topotecan], 5.72 min. On to `O=C(c1ccccc1)c1ccc2n1CCC2C(=O)O` (centres undefined) [Toradol], for which the LC retention time came to 1.29 min. With `Cc1cccc(Nc2ccncc2S(=O)(=O)NC(=O)NC(C)C)c1` [Torasemide], the LC retention time stood at 1.45 min. With `CN(C)CCOc1ccc(C(=C(CCCl)c2ccccc2)c2ccccc2)cc1` [Toremifene], the LC retention time amounted to 1.89 min. The same measure for `NC1CCN(c2nc3c(cc2F)c(=O)c(C(=O)O)cn3-c2ccc(F)cc2F)C1` (centres undefined) [Tosufloxacin]: 4.87 min. As for `COc1cccc(C2(O)CCCCC2CN(C)C)c1` (centres undefined) [Tramadol], the figure is 2.52 min; as for `COc1ccc(C=CC(=O)Nc2ccccc2C(=O)O)cc1OC` [Tranilast], 1.26 min.

On to `O=c1n(CCCN2CCN(c3cccc(Cl)c3)CC2)nc2ccccn12` [Trazodone], for which the LC retention time turned out to be 2.38 min.

Turning to `O=P(O)(O)OCC1OC(OC2OC(CO)C(O)C(O)C2O)C(O)C(O)C1O` (centres undefined) [Trehalose-6-phosphate], the LC retention time was found to be 9.72 min. For `O=C(OC1C(Oc2ccccc2COC(=O)C2(O)C=CCCC2=O)OC(CO)C(O)C1O)c1ccccc1` (centres undefined) [Tremulacin], the LC retention time stood at 1.51 min. As to `Cc1nnc2n1-c1ccc(Cl)cc1C(c1ccccc1Cl)=NC2` [Triazolam], the LC retention time worked out at 1.3 min. `CSc1nc2cc(Oc3cccc(Cl)c3Cl)c(Cl)cc2[nH]1` [Triclabendazole]: the LC retention time was determined as 1.01 min. On to `CN1CCN(CCCN2c3ccccc3Sc3ccc(C(F)(F)F)cc32)CC1` [Trifluoperazine], for which the LC retention time was determined as 2.15 min. As for `NC(=O)N1c2ccccc2CC(=O)c2ccccc21` [Trileptal], the figure is 1.13 min; as for `CCC(COC(=O)c1cc(OC)c(OC)c(OC)c1)(c1ccccc1)N(C)C` (centres undefined) [Trimebutine], 1.47 min; as for `CC(CN(C)C)CN1c2ccccc2CCc2ccccc21` (centres undefined) [Trimipramine], 2.25 min.

Consider `CN(C)CCN(Cc1ccccc1)c1ccccn1` [Tripelennamine], for which the LC retention time is 1.98 min.

As for `CC(C)C12OC1C1OC13C1(C)CCC4=C(COC4=O)C1CC1OC13C2O` (centres undefined) [Triptolide], the LC retention time turned out to be 1.02 min.

On to `CN1C2CCC1CC(OC(=O)c1c[nH]c3ccccc13)C2` (centres undefined) [Tropisetron], for which the LC retention time stood at 3.81 min. For `COc1cc(C(=O)NC2CCCNC2)cc(OC)c1OC` (centres undefined) [Troxipide], the LC retention time turned out to be 5.04 min. As for `NCCc1c[nH]c2ccccc12` [Tryptamine], the LC retention time stood at 6.92 min. Regarding `c1ccc2c3c([nH]c2c1)CNCC3` [Tryptoline], the LC retention time is 4.9 min. `NC(Cc1c[nH]c2ccccc12)C(=O)O` (centres undefined) [Tryptophan]: the LC retention time amounted to 6.92 min. `NC(=O)C(N)Cc1c[nH]c2ccccc12` (centres undefined) [Tryptophanamide]: the LC retention time is 5.91 min. The same measure for `NC(Cc1ccc(O)cc1)C(=O)NC(Cc1ccc(O)cc1)C(=O)NC(Cc1ccc(O)cc1)C(=O)O` (stereo not drawn) [Tyr-Tyr-Tyr]: 7.09 min; for `NC(Cc1ccc(O)cc1)C(=O)NC(Cc1ccc(O)cc1)C(=O)O` (centres undefined) [Tyr-Tyr]: 7.38 min. The same measure for `NCCc1ccc(O)cc1` [Tyramine]: 5.58 min; for `NC(Cc1ccc(O)cc1)C(=O)O` (centres undefined) [Tyrosine]: 7.61 min. As for `CN1CCc2cc(Cl)c(O)cc2C(c2ccccc2)C1` (centres undefined) [UNII-UGT5535REQ], the figure is 2.89 min.

As for `O=c1cc[nH]c(=O)[nH]1` [Uracil], the LC retention time was found to be 2.4 min.

With `COc1ccccc1N1CCN(CCCNc2cc(=O)n(C)c(=O)n2C)CC1` [Urapidil], the LC retention time was determined as 4.58 min. With `NC(=O)NC(CCC(=O)O)C(=O)O` (centres undefined) [Ureidoglutaric acid], the LC retention time stood at 7.8 min.

Regarding `O=c1ccn(C2OC(COP(=O)(O)O)C(O)C2O)c(=O)[nH]1` (centres undefined) [Uridine 5'-monophosphate], the LC retention time worked out at 8.97 min. As for `O=c1ccn(C2OC(CO)C(O)C2O)c(=O)[nH]1` (centres undefined) [Uridine], the figure is 4.72 min; as for `O=C(O)C=Cc1cnc[nH]1` [Urocanic acid], 3.69 min. As for `CC(C)C(N)C(=O)OCCOCn1cnc2c(=O)[nH]c(N)nc21` (centres undefined) [Valaciclovir], the figure is 6.83 min; as for `Cc1onc(-c2ccccc2)c1-c1ccc(S(N)(=O)=O)cc1` [Valdecoxib], 1.01 min; as for `CC(C)C(N)C(=O)O` (centres undefined) [Valine], 7.24 min.

As to `CCCCC(=O)N(Cc1ccc(-c2ccccc2-c2nn[nH]n2)cc1)C(C(=O)O)C(C)C` (centres undefined) [Valsartan], the LC retention time worked out at 1.69 min. Regarding `COc1cc(C=O)ccc1O` [Vanillin], the LC retention time was determined as 1.15 min. The same measure for `CCCc1nc(C)c2c(=O)[nH]c(-c3cc(S(=O)(=O)N4CCN(CC)CC4)ccc3OCC)nn12` [Vardenafil]: 1.7 min; for `COc1ccc(C(CN(C)C)C2(O)CCCCC2)cc1` (centres undefined) [Venlafaxine]: 2.44 min; for `CC(=O)OC1CC2CCC3C(CCC4(C)C3CC([N+]3(C)CCCCC3)C4OC(C)=O)C2(C)CC1N1CCCCC1` (centres undefined) [Vercuronium]: 5.53 min.

As to `OC1CCCCC1N1CCC(c2ccccc2)CC1` (centres undefined) [Vesamicol], the LC retention time was determined as 2.65 min. As for `CCC1(O)CC2CN(CCc3c([nH]c4ccccc34)C(C(=O)OC)(c3cc4c(cc3OC)N(C=O)C3C(O)(C(=O)OC)C(OC(C)=O)C5(CC)C=CCN6CCC43C65)C2)C1` (centres undefined) [Vincristine], the figure is 3.7 min; as for `CCC1(O)CC2CN(CCc3c([nH]c4ccccc34)C(C(=O)OC)(c3cc4c(cc3OC)N(C)C3C(O)(C(N)=O)C(O)C5(CC)C=CCN6CCC43C65)C2)C1` (centres undefined) [Vindesine], 5.76 min. `CCC1=CC2CN(C1)Cc1c([nH]c3ccccc13)C(C(=O)OC)(c1cc3c(cc1OC)N(C)C1C(O)(C(=O)OC)C(OC(C)=O)C4(CC)C=CCN5CCC31C54)C2` (centres undefined) [Vinorelbine]: the LC retention time is 4.76 min.

Regarding `C=COC(N)=O` [Vinyl Carbamate], the LC retention time was determined as 1.34 min.

As to `Cc1ccnc2c1NC(=O)c1cccnc1N2C1CC1` [Viramune], the LC retention time stood at 1.16 min. With `O=c1cc(-c2ccc(O)cc2)oc2c(C3OC(CO)C(O)C(O)C3O)c(O)cc(O)c12` (centres undefined) [Vitexin], the LC retention time came to 5.33 min. As for `CC(c1ncncc1F)C(O)(Cn1cncn1)c1ccc(F)cc1F` (centres undefined) [Voriconazole], the figure is 1.02 min. As for `CC(=O)CC(c1ccccc1)c1c(O)c2ccccc2oc1=O` (centres undefined) [Warfarin], the figure is 0.99 min; as for `NC(Cn1ccc(=O)[nH]c1=O)C(=O)O` (centres undefined) [Willardiine], 8.72 min; as for `CN(CCO)CC(O)Cn1cnc2c1c(=O)n(C)c(=O)n2C` (centres undefined) [Xanthinol], 6.01 min. Consider `O=c1[nH]c(=O)c2ncn(C3OC(CO)C(O)C3O)c2[nH]1` (centres undefined) [Xanthosine], for which the LC retention time was found to be 7.3 min.

On to `COc1c2occc2cc2ccc(=O)oc12` [Xanthotoxin], for which the LC retention time was found to be 1.04 min.

Take `COc1cc(N)c(Cl)cc1C(=O)NC1CN2CCC1CC2` (centres undefined) [Zacopride]: the LC retention time worked out at 4.66 min. The same measure for `COc1cc(C(=O)NS(=O)(=O)c2ccccc2C)ccc1Cc1cn(C)c2ccc(NC(=O)OC3CCCC3)cc12` [Zafirlukast]: 1 min; for `CCN(C(C)=O)c1cccc(-c2ccnc3c(C#N)cnn23)c1` [Zaleplon]: 1.02 min; for `COc1cc(-c2ccc(=O)[nH]n2)ccc1OC(F)F` [Zardaverine]: 1.19 min.

Regarding `CC1CCCC(O)CCCCCc2cc(O)cc(O)c2C(=O)O1` (centres undefined) [Zeranol], the LC retention time is 1.11 min.

Consider `CC(c1cc2ccccc2s1)N(O)C(N)=O` (centres undefined) [Zileuton], for which the LC retention time came to 1.23 min. As for `CN(C)CCc1c[nH]c2ccc(CC3COC(=O)N3)cc12` (centres undefined) [Zolmitriptan], the LC retention time came to 4.8 min.
